Paper PMC7031302, “Design and synthesis of new energy restriction mimetic agents: Potent anti-tumor activities of hybrid motifs of aminothiazoles and coumarins” (Scientific Reports, 2020)

How the values were obtained:
Assay type in all cases: cell-based, Human
[1] = test system: Caspase 3/7 activities in HT-29 cells; assay: Caspase 3/7 activity assay, HT-29; details: HT-29, 72 h
Method: (§1) Based on this, the energy restriction mediated anticancer activity of the new coumarin tagged aminothiazole derivatives was investigated. The expression levels of PARP, p-Akt, Akt, p-AMPK, AMPK, β-TrCP, LC3A/B-I, LC3A/B-II, caspase-3, cyclin D1, and Bcl-2 proteins were determined by Western blot analysis after 72 h treatment of HT-29 and HCT116 at different concentrations based on the IC50 values of each compound (Fig. 3A,B). […] Moreover, the treatment with 9b and 9f induced caspase 3/7 activation, which was detected by caspase 3/7 activity assay and confirmed by Western blot. The activation of caspases was significant in 9b in both cell lines and significant with 9f in HCT116 cells only and minimal in HT-29 cells (Fig. 3C,D). On the other hand, both 9b and 9f induced dose-dependent proteolytic processing of PARP. […] Besides, the protein expression level of the anti-apoptotic protein, Bcl-2, was reduced in HCT116 upon treatment with both compounds.
Caspase-3/7 activities in HT-29 and HCT116 cells treated with candidate compounds were measured using Caspase-Glo 3/7 assay kit (Promega, Madison, WI, USA) following the manufacturer’s instructions. […] 50 µL of lysate and 50 µL of caspase substrate were added to a white opaque 96-well plate, and the luminescence was measured by Varioskan Flash multimode reader (Thermo-Scientific, Vantaa, Finland)

HT-29 [2] = assay: Western blot analysis, HT-29; details: for expression of LC3A-II and LC3B-II: HT-29 (CRC cell lines); for expression of LC3A-II and LC3B-II / p-mTOR and p-p70S6K levels: 72 h; for AMPK activation through phosphorylation / Akt phosphorylation / PARP cleavage: HT-29, 72 h
Method: as §1
(§2) Following 72 h of treatment, cells were lysed and the extracted proteins were quantified using DC protein assay kit (Bio-Rad, Hercules, CA, USA) following the manufacturer’s instructions. Proteins were resolved on 8% or 12% SDS-poly-acrylamide gels, then transferred onto a nitrocellulose membrane using a semi-dry transfer cell. The membranes were blocked in TBS-T containing 5% non-fat milk for 1 h and incubated overnight at 4 °C overnight with indicated primary antibodies (Cell Signaling Technologies, Beverly, MA, USA) and then incubated with goat anti-mouse or anti-rabbit secondary antibody (Cell Signaling Technologies, Beverly, MA, USA) for 1 h at room temperature. Detection was done using chemiluminescence substrate (Bio-Rad, Hercules, CA, USA). β-actin (Cell Signaling Technologies, Beverly, MA, USA) was used as a loading control.
(§3) The blots were captured with ChemiDoc Imaging System (Bio-Rad, Hercules, CA, USA) and bands were visualized with the Image Lab v5.2.1 software (Bio-Rad, Hercules, CA, USA).

HCT116 [3] = assay: Western blot analysis, HCT116; details: for expression of LC3A-II and LC3B-II: HCT116 (CRC cell lines)
Method: as §1, §2, §3

HT-29 [4] = assay: Glucose uptake assay, HT-29; details: HT-29, 16 h treatment, dose-dependent
From the text: (§4) According to previous studies, ERMAs inhibited glucose utilization in cancer cells[13],[19]. Therefore, we investigated glucose uptake (Fig. 5A) upon treatment with 9b and 9f in HT-29 and HCT116 cells at different concentrations based on the IC50 of each compound. […] This effect is known to result in the accumulation of reactive oxygen species (ROS) and could play a role in glucose deprivation-induced cytotoxicity and oxidative stress in cancer cells. […] The observed increase in ROS levels could lead to oxidative stress and extensive cell death in the absence of NADPH detoxification.
(§5) CRC cells (1 × 10^4) were seeded into a 96-well plate overnight. Cells were treated with test compounds or vehicle (negative control) glucose-free RPMI-1640 medium for 16 h; then, the cells were incubated with 2 mM 2-DG for 10 minutes. Eventually, glucose uptake of cells was measured using Glucose Uptake-Glo Assay (Promega, Madison, WI, USA) according to the manufacturer’s instructions. Luminescence was measured post 2 h of incubation at room temperature using Varioskan Flash multimode reader (Thermo Scientific). Glucose uptake was normalized to the total protein content in the samples using DC protein assay kit (Bio-Rad, Hercules, CA, USA).

HCT116 [5] = assay: Glucose uptake assay, HCT116; details: HCT116, 16 h treatment, dose-dependent
From the text: as §4, §5

CRC cells = assay: NADPH/NADP+ assay; details: 48 h treatment
From the text: as §4
(§6) NADPH/NADP+ and ROS concentrations were measured using the NADP/NADPH-Glo Assay Kit (Promega, Madison, WI, USA) and ROS-Glo H2O2 Assay (Promega, Madison, WI, USA), respectively, based on the manufacturer instructions. In NADPH/NADP+ assay, CRC cells were seeded into a 96-well flat-bottomed plate and incubated overnight. On the following day, cells were treated with the testing compound or vehicle for 48 h. At the endpoint of treatment, the media were aspirated and replaced with 60 µl PBS/well, then cells were lysed in 60 µl base solution with 1% dodecyl (trimethyl) ammonium bromide (Sigma-Aldrich-St. Louis, MO, USA). […] Luminescence was measured after 30 minutes using Varioskan Flash multimode reader (Thermo Scientific). […] Luminescence was measured after 20 min incubation at room temperature.

HCT116 [6] = assay: ROS-Glo H2O2 assay, HCT116; details: HCT116, 6 h incubation
From the text: as §4, §6

[7] = HCT116, higher concentrations, except at doses 1 and 2 µM where induced p-mTOR was observed

Row | SMILES | activation of caspases (caspase 3/7) [1] | expression of LC3A-II and LC3B-II (HT-29 [2]) | AMPK activation through phosphorylation (HT-29 [2]) | Akt phosphorylation (HT-29 [2]) | PARP cleavage (HT-29 [2]) | p-mTOR and p-p70S6K levels (HT-29 [2]; HT-29, higher concentrations) | expression of LC3A-II and LC3B-II (HCT116 [3]; 72 h, Western blot) | AMPK activation through phosphorylation (HCT116 [3]; HCT116, 72 h, Western blot) | protein expression level of Bcl-2 (HCT116 [3]; HCT116, 72 h, Western blot) | Akt phosphorylation (HCT116 [3]; HCT116, high concentrations, 72 h, Western blot) | p-mTOR and p-p70S6K levels (HCT116 [3]; [7]) | glucose uptake (HT-29 [4]) | glucose uptake (HCT116 [5]) | NADPH/NADP+ ratio (CRC cells) | generation of hydrogen peroxide (H2O2) and ROS (HCT116 [6]) | p-mTOR and p-p70S6K levels (HT-29 [2]; HT-29, 0.5 µM) | p-mTOR and p-p70S6K levels (HCT116 [3]; HCT116, 0.5 µM, 72 h, Western blot) | PARP cleavage (HCT116 [3]; HCT116, 72 h, Western blot) | expression of β-TrCP and cyclin D (HCT116 [3]; HCT116, 72 h, Western blot)
1 | Cc1cc(=O)oc2cc(Nc3nc(-c4cccc([N+](=O)[O-])c4)cs3)ccc12 [Compound 9f, 4-Methyl-7-(4-(3-Nitrophenyl)thiazol-2-ylamino)-2H-chromen-2-one] | minimal | induced the expression of LC3A-II and LC3B-II | enhancement of AMPK activation | inhibition of Akt phosphorylation | PARP cleavage only in HT-29 cells at the highest tested dose | decrease | induced the expression of LC3A-II and LC3B-II | enhancement of AMPK activation | reduced | induced Akt phosphorylation | decrease | inhibited significantly | inhibited significantly | significant decrease | significantly increased | – | – | – | –
2 | Cc1cc(=O)oc2cc(Nc3nc(-c4ccc(Br)cc4)cs3)ccc12 [Compound 9b, 7-(4-(4-Bromophenyl)thiazol-2-ylamino)-4-methyl-2H-chromen-2-one] | significant | induced the expression of LC3A-II and LC3B-II | enhancement of AMPK activation | inhibition of Akt phosphorylation | induced PARP cleavage | decrease | induced the expression of LC3A-II and LC3B-II | enhancement of AMPK activation | reduced | – | decrease | inhibited significantly | inhibited significantly | significant decrease | significantly increased | initial increase | initial increase | induced PARP cleavage | dose-dependent downregulation
